Where “and” joins values, the source holds several entries; their conditions need not be identical. Equal entries are not always repeated. Where two headings read alike, the source gives them in different places.
How the values were obtained:
[1] = Study B: plasma pharmacokinetics after single-dose i.v. telavancin 10 mg/kg in subjects with varying renal function; conditions: for half-life / AUC(0-inf) / Cmax / clearance: both, human, in vivo, iv; for half-life / AUC(0-inf) / Cmax / clearance / increase in systemic exposure (AUC0–∞) compared with healthy subjects: 10 mg/kg; for AUC(0-inf): AUC0–∞; for Cmax: C max (maximum plasma concentration); for clearance: CL (clearance)
Description: Plasma pharmacokinetic parameters were calculated as previously described.

plasma proteins = assay: Plasma protein binding by equilibrium dialysis (study A pre-infusion plasma); format: in vitro ADME, human; conditions: in vitro equilibrium dialysis; for Protein binding (%): pre-infusion plasma, telavancin 50 μg/ml spiked with 1 μg/ml [14C]telavancin, mean ± SD
Description: The percent of protein binding was calculated as follows: %bound=donor−receptor÷donor×100%,and%unbound=receptor÷donor×100%, where donor = plasma side concentration and receptor = buffer side concentration.

[2] = study A, ESRD
Description: (§1) In subjects with end-stage renal disease (ESRD), haemodialysis was initiated 2–4 h after study drug administration (study A only). Haemodialysis sessions were 4 h in duration, and when possible, a similar type of dialyzer at a similar blood flow rate was used across haemodialysis subjects.
For subjects with ESRD (study A), a sample from the inflow to the dialyzer on the arterial side was collected before dialysis and at 1, 2, 3 and 4 h after the start of dialysis; dialysate fluid samples (10 ml) were collected before and at 30-min intervals during dialysis. Plasma samples were also collected at 0, 60, 120, 180 and 240 min following the start of dialysis.
(§2) The method was linear over the range 0.25–100 μg/ml and the lower limit of quantification (LLQ) was 0.25 μg/ml. Dialysate samples from study A were analysed at a separate central laboratory (Covance Laboratories, Madison, WI, USA) using a similar validated LC–MS method. […] Study samples outside the calibration range were diluted and re-assayed. Dilution QC samples were included in batches where samples were diluted prior to analysis.
Dialyzers used included the PSN 210 and the 2K 2.5 Dialysate (both Gambro). The dialysate flow rate was 800 mL/min, and blood flow rates in patients ranged from 300 to 500 mL/min.

[3] = not given; remark: listed apart in the source
[4] = cited from earlier work
clinical = conditions: both, human, in vivo, iv, 7.5 mg/kg
Description: (§3) Subjects included men and non-pregnant women and, in study A or B, respectively, were ≥18 years or 20–79 years of age with a body mass index of 18–36 or 18.5–34 kg/m^2. Subjects were either healthy or had mild, moderate or severe renal impairment.
(§4) Subjects were assigned to the renal impairment strata based on assessment during pre-study screening. For study A, strata assignment was based on CLcr calculated using the Cockcroft-Gault (C–G) equation [12] […] For study B, assignment was based on the estimated glomerular filtration rate (eGFR) using the Modification of Diet in Renal Disease formula [13] […] Summary statistics for Study B were also prepared using the C–G equation [12] with and without normalization to body surface area. Creatinine assays were performed at each clinical site using UV absorbance assays at 512 nm to detect the yellow–red complex formed from the reaction of creatinine and picric acid under alkaline conditions.
as §1
(§5) Blood samples (5–6 ml) were collected in sodium heparin glass tubes and stored chilled until the plasma was harvested by centrifugation and stored at approximately –70 °C or below until transferred frozen to a central laboratory for analysis. For subjects with varying degrees of renal impairment, samples were collected in study A pre-infusion, at 1, 2, 4, 6, 8, 12, 24, 36 and 48 h after the start of infusion for all groups and also at 72 and 96 h post-infusion for subjects with severe renal impairment or ESRD. In study B, samples were collected pre-infusion and at 0.5, 1, 1.5, 2, 3, 4, 6, 8, 10, 12, 16, 24, 36, 48, 60, 72, 84 and 96 h post-dose.
as §2
(§6) The CL reported for ESRD is the CL for the subjects (i.e., includes residual clearance and any dialysis clearance).

[5] = Study B: urinary excretion and renal clearance; conditions: mean ± SD; for CLR (renal clearance): CLR = Ae ÷ AUC; for dose excreted: human, in vivo, iv, 10 mg/kg; for Ae0–∞ (amount excreted in the urine extrapolated to infinity): normalized to a telavancin dose of 10 mg/kg
Description: Aliquots were collected and stored at −70 °C or lower.
The inter- and intra-assay precision and accuracy of quality controls and standards during the validation was within 7.6 % in plasma and 10.2 % in urine.
Plasma pharmacokinetic parameters were calculated as previously described [7]. The CL reported for ESRD is the CL for the subjects (i.e., includes residual clearance and any dialysis clearance).
Dialyzers used included the PSN 210 and the 2K 2.5 Dialysate (both Gambro). The dialysate flow rate was 800 mL/min, and blood flow rates in patients ranged from 300 to 500 mL/min. […] In study B, the percentage of the dose excreted in urine was calculated as Ae0–t% = Ae0–t/dose × 100 % and Ae0–∞% = Ae0–∞/dose × 100 %.

[6] = Study A: plasma pharmacokinetics after single-dose i.v. telavancin 7.5 mg/kg in subjects with varying renal function
Description: as §3, §4, §1, §5, §2, §6

[7] = human, in vivo
Description: as §3, §4, §1, §5, §2, §6

[8] = data on file, cited from earlier work
[9] = study B, single 1-h i.v. infusion telavancin 10 mg/kg, plasma, mild RI (eGFR 60 to 89 mL/min/1.73 m^2), n = 13, mean ± SD
[10] = study B, single 1-h i.v. infusion telavancin 10 mg/kg, plasma, normal renal function (eGFR ≥90 mL/min/1.73 m^2), n = 14, mean ± SD
[11] = study B, single 1-h i.v. infusion telavancin 10 mg/kg, plasma, severe RI (eGFR 15 to 29 mL/min/1.73 m^2), n = 8, mean ± SD
[12] = subjects with severe renal impairment or ESRD, stated for both studies

Compound: CCCCCCCCCCNCCN[C@@]1(C)C[C@H](O[C@H]2[C@H](Oc3c4cc5cc3Oc3ccc(cc3Cl)[C@@H](O)[C@@H](NC(=O)[C@@H](CC(C)C)NC)C(=O)N[C@@H](CC(N)=O)C(=O)N[C@H]5C(=O)N[C@H]3C(=O)N[C@H](C(=O)N[C@H](C(=O)O)c5cc(O)c(CNCP(=O)(O)O)c(O)c5-c5cc3ccc5O)[C@H](O)c3ccc(c(Cl)c3)O4)O[C@H](CO)[C@@H](O)[C@@H]2O)O[C@@H](C)[C@H]1O [telavancin]
- half-life [1]: 6.5 h
- AUC(0-inf) [1, 9]: 606 µg·h/mL
- AUC(0-inf) ([1]; study B, single 1-h i.v. infusion telavancin 10 mg/kg, plasma, moderate RI (eGFR 30 to 59 mL/min/1.73 m^2), n = 8, mean ± SD): 936 µg·h/mL
- AUC(0-inf) [1, 10]: 539 µg·h/mL
- AUC(0-inf) [1, 11]: 1400 µg·h/mL
- Cmax ([1]; study B, single 1-h i.v. infusion telavancin 10 mg/kg, mild RI (eGFR 60 to 89 mL/min/1.73 m^2), n = 13, mean ± SD): 74.2 µg/mL
- Cmax ([1]; study B, single 1-h i.v. infusion telavancin 10 mg/kg, normal renal function (eGFR ≥90 mL/min/1.73 m^2), n = 14, mean ± SD): 76.7 µg/mL
- Cmax ([1]; study B, single 1-h i.v. infusion telavancin 10 mg/kg, severe RI (eGFR 15 to 29 mL/min/1.73 m^2), n = 8, mean ± SD): 83.2 µg/mL
- clearance [1, 9]: 0.253 mL/min/kg
- clearance [1, 10]: 0.283 mL/min/kg
- clearance [1, 11]: 0.108 mL/min/kg
- half-life ([1]; t ½ (terminal elimination half-life), study B, single 1-h i.v. infusion telavancin 10 mg/kg, plasma, mild RI (eGFR 60 to 89 mL/min/1.73 m^2), n = 13, mean ± SD): 7.8 h
- half-life ([1]; t ½ (terminal elimination half-life), study B, single 1-h i.v. infusion telavancin 10 mg/kg, plasma, severe RI (eGFR 15 to 29 mL/min/1.73 m^2), n = 8, mean ± SD): 11.8 h
- increase in systemic exposure (AUC0–∞) compared with healthy subjects ([1]; study B, mild renal impairment): 12%
- increase in systemic exposure (AUC0–∞) compared with healthy subjects ([1]; study B, moderate renal impairment): 74%
- increase in systemic exposure (AUC0–∞) compared with healthy subjects ([1]; study B, severe renal impairment): 160%
- C max (maximum plasma concentration) ([1]; study B, single 1-h i.v. infusion telavancin 10 mg/kg, moderate RI (eGFR 30 to 59 mL/min/1.73 m^2), n = 8, mean ± SD): 78.0 ± 4.5 µg/mL
- Protein binding (%) (plasma proteins; ESRD on dialysis, n = 6): 87.6 ± 1.0/0%
- Protein binding (%) (plasma proteins; mild RI (CLcr 51–80 mL/min), n = 6): 87.5 ± 1.0%
- Protein binding (%) (plasma proteins; moderate RI (CLcr 30–50 mL/min), n = 6): 87.8 ± 1.1%
- Protein binding (%) (plasma proteins; normal renal function (CLcr >80 mL/min), n = 6): 86.5 ± 1.3%
- Protein binding (%) (plasma proteins; severe RI (CLcr <30 mL/min), n = 4): 86.7 ± 1.2%
- average binding to plasma proteins (plasma proteins; study A pre-dose plasma, all renal impairment groups): approximately 87%
- dialysis clearance as share of clearance in normal subjects (total body CL) [2]: approximately 25%
- total administered dose removed by dialysis session ([2]; 7.5 mg/kg, 4-h haemodialysis on the day of administration, dialysate flow 800 mL/min): approximately 6%
- dialysis clearance ([2]; CLHD = QD × (CTLV – DTLV) ÷ CTLV, dialysate flow 800 mL/min, estimated): 4.5 mL/min
- dialysis clearance ([2]; same value in ml/h): 4.52 mL/min
- subjects reporting treatment-emergent adverse events (TEAEs) (study A, ESRD, 2/6): 33%
- subjects reporting treatment-emergent adverse events (TEAEs) (study A, all subjects, 17/29): 59%
- subjects reporting treatment-emergent adverse events (TEAEs) (study A, mild renal impairment, 4/7): 57%
- subjects reporting treatment-emergent adverse events (TEAEs) (study A, moderate renal impairment, 3/6): 50%
- subjects reporting treatment-emergent adverse events (TEAEs) (study A, normal renal function, 5/6): 83%
- subjects reporting treatment-emergent adverse events (TEAEs) (study A, severe impairment, 3/4): 75%
- tolerability (study A, single i.v. infusion 7.5 mg/kg, normal renal function and varying degrees of renal impairment): well tolerated
- audiology assessments (ten subjects with various degrees of renal impairment, study not given): no clinically significant abnormalities
- serious adverse events ([3]; stated after the study B findings, study not given): No serious adverse events were reported
- subjects reporting treatment-emergent adverse events (TEAEs) ([3]; study B, all subjects, 7/43): 16.3%
- subjects reporting treatment-emergent adverse events (TEAEs) ([3]; study B, mild renal impairment, 1/13): 7.7%
- subjects reporting treatment-emergent adverse events (TEAEs) ([3]; study B, moderate renal impairment, 2/8): 25%
- subjects reporting treatment-emergent adverse events (TEAEs) ([3]; study B, normal renal function, 0/14): 0%
- subjects reporting treatment-emergent adverse events (TEAEs) ([3]; study B, severe impairment, 4/8): 50%
- tolerability ([3]; study B, single i.v. infusion 10 mg/kg, normal renal function and varying degrees of renal impairment): well tolerated
- subjects with ECG QT prolongation ([3]; study B, three subjects of 43 (two severe, one moderate renal impairment), mild and transient): 7.0%
- subjects with increased blood lactate dehydrogenase ([3]; study B, two subjects of 43, mild and transient): 4.7%
- excreted intact in urine ([4]; after a single i.v. administration of 10 mg/kg): 82%
- elimination half-life (t½) ([4]; healthy adult volunteers, 7.5–15 mg/kg/day i.v. infusion, averaging): ~7 h
- Cmax (clinical): 70.6 ± 11.2 µg/mL
- CLR (renal clearance) ([5]; mild renal impairment): 0.147 ± 0.055 mL/min/kg
- CLR (renal clearance) ([5]; moderate renal impairment): 0.0783 ± 0.0267 mL/min/kg
- CLR (renal clearance) ([5]; normal renal function): 0.17 ± 0.03 mL/min/kg and 0.175 ± 0.0317 mL/min/kg
- CLR (renal clearance) ([5]; severe renal impairment): 0.03 ± 0.01 mL/min/kg and 0.0317 ± 0.012 mL/min/kg
- dose excreted ([5]; both, Ae0-t % (percentage of the dose excreted in urine), urine 0–96 h, mild renal impairment): 58.2 ± 11.5%
- dose excreted ([5]; both, Ae0-t % (percentage of the dose excreted in urine), urine 0–96 h, moderate renal impairment): 48.4 ± 8.7%
- dose excreted ([5]; both, Ae0-t % (percentage of the dose excreted in urine), urine 0–96 h, normal renal function): 62.8 ± 9%
- dose excreted ([5]; both, Ae0–∞% (percentage of the dose excreted in urine, extrapolated to infinity), normal renal function): 62.7 ± 9.1%
- dose excreted ([5]; Ae0–∞% (percentage of the dose excreted in urine, extrapolated to infinity), mild renal impairment): 58.2 ± 11.6%
- dose excreted ([5]; Ae0–∞% (percentage of the dose excreted in urine, extrapolated to infinity), moderate renal impairment): 48.4 ± 9.3%
- dose excreted ([5]; Ae0–∞% (percentage of the dose excreted in urine, extrapolated to infinity), severe renal impairment): 28.2 ± 3.9%
- Ae0–∞ (amount excreted in the urine extrapolated to infinity) ([5]; mild renal impairment): 396 ± 100 mg
- Ae0–∞ (amount excreted in the urine extrapolated to infinity) ([5]; moderate renal impairment): 375 ± 96 mg
- Ae0–∞ (amount excreted in the urine extrapolated to infinity) ([5]; normal renal function): 435 ± 91 mg
- Ae0–∞ (amount excreted in the urine extrapolated to infinity) ([5]; severe renal impairment): 208 ± 60 mg
- Ae0-t % (percentage of the dose excreted in urine) ([5]; urine 0–96 h, severe renal impairment): 28.0 ± 4.3%
- clearance ([6]; both, human, in vivo, iv, 7.5 mg/kg, CL (clearance), study A, single 1-h i.v. infusion telavancin 7.5 mg/kg, plasma, ESRD, n = 6, includes residual clearance and any dialysis clearance, mean ± SD): 0.136 mL/min/kg
- increase in systemic exposure (AUC0–∞) compared with healthy subjects ([6]; study A, 7.5 mg/kg, ESRD group): 79%
- increase in systemic exposure (AUC0–∞) compared with healthy subjects ([6]; study A, 7.5 mg/kg, mild renal impairment): 13%
- increase in systemic exposure (AUC0–∞) compared with healthy subjects ([6]; study A, 7.5 mg/kg, moderate renal impairment): 29%
- increase in systemic exposure (AUC0–∞) compared with healthy subjects ([6]; study A, 7.5 mg/kg, severe renal impairment): 118%
- change of t1/2 [6, 12]: almost doubled
- reduction of mean plasma CL [6, 12]: more than 50%

Compound: hydroxypropylbetadex
- CL (clearance) [7]: 9.8 ± 4.3/0 mL/h/kg
- t½ ([8]; previously studied patients with severe renal impairment): 15.6 ± 6.0 h
- t½ ([8]; subjects with normal renal function): 2.5 ± 0.84 h
